In ChEMBL document CHEMBL2163212, “Antivirals targeting influenza A virus” (J Med Chem, 2012) one finds IC50 data, which are given here for two molecules.

Each structure is given as a SMILES string.

The experiment relates to Influenza A virus. Description: Antiviral activity against Influenza A virus assessed as inhibition of cap dependent viral transcription. The class given is functional, organism-based.

Consider `O=C(O)/C(O)=C/C(=O)C1(Cc2ccc(Cl)cc2)CCCN(Cc2ccccc2)C1` (configuration not stated), for which the IC50 stood at 1000 nM.

With `O=C(O)/C(O)=C/C(=O)C1(Cc2ccc(Cl)cc2)CCN(Cc2ccccc2)CC1`, the IC50 was 1000 nM.

For orientation: IC50 means the point on the concentration scale where inhibition reaches its midpoint.
